Values joined by “and” are separate entries in the source; they are usually repeats but may differ in a detail not shown here. Equal entries are not always repeated.
Assays:
Assay type in all cases: in vivo, mouse
STAM model mice (NASH) [1] = assay: STAM model mice: blood biochemistry and liver triglyceride content; details: day of sacrifice, mean ± SD
Description: (§1) Having observed the improvements in markers that correlate with liver disease in patients treated with PHEN/TPM, animal studies in the STAM model for NAFLD/NASH were preformed to look more specifically at liver morphology and function following treatment with PHEN/TPM. The STAM model was selected because it allows a specific examination of the effects of drug treatment, in this example PHEN/TPM, on non-alcoholic steatohepatitis. The STAM model is a non-genetic animal model of human NASH with features of diabetic background, increased. NAFLD activity score (NAS), perivenular and pericellular fibrosis in Zone 3, and a high incidence of hepatocellular carcinoma (Fujii M. et al., Med. Mel. Morphol., 2013; 46: 141). The model is induced by a combination of chemical and dietary interventions in the mice. In this example, NASH was induced in 30 male mice by a single subcutaneous injection of 200 μg streptozotocin (STZ, Sigma-Aldrich, USA) solution 2 days after birth and feeding with a high fat diet (HFD, 57 kcal % fat, cat#: HFD32, CLEA Japan, Japan) after 4 weeks of age. The mice were treated with either vehicle, PHEN/TPM or Telmisartan.
Phentermine (PHEN) and Topiramate (TPM) were weighed and dissolved in distilled water and 0.5% methylcellulose, respectively. Telmisartan (MICARDIS®) was purchased from Boehringer Ingelheim GmbH (Germany) and suspended in milli-Q water. Vehicle, PHEN and TPM were orally administered in a volume of 5 mL/kg. Telmisartan was orally administered in a volume of 10 mL/kg. PHEN was administered at a dose of 15 mg/kg once daily. […]
Measurement of blood biochemistry. Non-fasting blood glucose was measured in whole blood using LIFE CHECK (EIDrA, Japan). […] The plasma ALT (alanine aminotransferase) and AST (aspartate aminotransferase) levels were measured by FUJI DRI CHEM 7000 (FujiFilm, Japan) Measurement of liver triglyceride content Liver total lipid-extracts were obtained by Folch's method (Folch J. el al., J. Bioi. Chern. 1957; 226: 497). […] Liver triglyceride levels were measured by Triglyceride E-test (Wako Pure Chemical Industries, Japan). […]

STAM model mice (NASH) [2] = assay: STAM model mice: liver histopathology (HE/NAS, Sirius red, Oil red, F4/80)
Description: as §1
(§2) Phentermine (PHEN) and Topiramate (TPM) were weighed and dissolved in distilled water and 0.5% methylcellulose, respectively. Telmisartan (MICARDIS®) was purchased from Boehringer Ingelheim GmbH (Germany) and suspended in milli-Q water. Vehicle, PHEN and TPM were orally administered in a volume of 5 mL/kg. Telmisartan was orally administered in a volume of 10 mL/kg. PHEN was administered at a dose of 15 mg/kg once daily. TPM was administered at a dose of 100 mg/kg once daily. Telmisartan was administered at a dose of 5 mg/kg once daily.
Histopathology analysis. For HE staining, sections were cut from paraffin blocks of liver tissue prefixed in Bouin's solution and stained with Lillie-Mayers Hematoxylin (Muto Pure Chemicals, japan) and eosin solution (Wako Pure Chemical industries). NAS was calculated according to the criteria of Kleiner (Kleiner D E. et al., Hepatology, 2005; 41: 1313). To visualize collagen deposition, Bouin's fixed liver sections were stained using picro-Sirius red solution (Waldeck, Gelman)). To visualize macro- and microvesicular fat, sections were cut from frozen liver tissues embedded in Tissue-Tek O.C.T. compound (Sakura Finetek Japan, Japan), and stained with Oil Red 0 (SigmaAldrich). For immunohistochemistry, sections were cut from frozen liver tissues embedded in Tissue-Tek O.C.T. compound and fixed in acetone. Endogenous peroxidase activity was blocked using 0.03% H2O2 for 5 minutes, followed by incubation with Block Ace (Dainippon Sumitomo Pharma, Japan) for 10 minutes. The sections were incubated with a 200-fold dilution of anti-F4/80 antibody (BMA Biomedicals, Switzerland) 1 hour at room temperature. After incubation with secondary antibody (HRP-Goat anti-rat antibody, Invitrogen, USA), enzyme-substrate reactions were performed using 3, 3′-diaminobenzidine/H202 solution (Nichirei, Japan). For quantitative analyses of fibrosis, inflammation and fat deposition areas, bright field images of Sirius red-stained, F4/80-immunostained and oil red-stained sections were captured around the central vein using a digital camera (DFC280; Leica, Germany) at 200-fold magnification, and the positive areas in 5 fields/section were measured using ImageJ software (National Institute of Health, USA).
(§3) The three treatment groups were as follows: Group 1: Vehicle: 10 NASH mice were orally administered vehicle [distilled water and 0.5% methylcellulose in a volume of 5 mL./kg, respectively] once daily from 5 to 11 weeks of age. Group 2: PHEN/WM. 10 NASH mice were orally administered distilled water supplemented with PHEN at a dose of 15 mg/kg, and 0.5% methylcellulose supplemented with TPM at a dose of 100 mg/kg once daily from 5 to 11 weeks of age. Group 3: Telmisartan. […]

[3] = test system: liver mRNA of TNF-α, TIMP-1, Alpha-SMA, MMP-9, collagen type 1, MCP-1; assay: STAM model mice: liver gene expression analysis (real-time PCR, normalized to 36B4); details: vehicle average = 1.0, mean ± SD
Description: as §1, §2
Total RNA was extracted from liver samples using RNAiso (Takara Bio, Japan) and SV total RNA isolation kit (Promega, USA) according to the manufacturer's instructions. One/1 g of RNA was reverse-transcribed using a reaction mixture containing 4.4 mM MgCb (F. Hoffmann-La Roche, Switzerland), 40 U RNase inhibitor (Toyobo, Japan), 0.5 mM dNTP (Promega), 6.28 µM random hexamer (Promega), 5× first strand buffer (Promega), 10 mM dithiothreitol (Invitrogen, USA) and 200 U MMLV-RT (Invitrogen) in a final volume of 20 IIL. The reaction was carried out for 1 hour at 37° C., followed by 5 minutes at 99° C. Real-time PCR was performed using real-time PCR DICE and SYBR premix Tag (Takara Bio). To calculate the relative mRNA expression level, the expression of each gene was normalized to that of reference gene 36B4 (gene symbol: RplpO). To express data as fold-change relative to the Vehicle-control group, the data were standardized so that average values of the Vehicle group become 1.0.
The three treatment groups were as follows: Group 1: Vehicle: 10 NASH mice were orally administered vehicle [distilled water and 0.5% methylcellulose in a volume of 5 mL./kg, respectively] once daily from 5 to 11 weeks of age. Group 2: PHEN/WM. 10 NASH mice were orally administered distilled water supplemented with PHEN at a dose of 15 mg/kg, and 0.5% methylcellulose supplemented with TPM at a dose of 100 mg/kg once daily from 5 to 11 weeks of age. Group 3: Telmisartan. 10 NASH mice were orally administered pure water supplemented with Telmisartan at a dose of 5 mg/kg once daily from 5 to 11 weeks of age.
The values in Table 7 were calculated by dividing Target by 36B4 for each animal. An average was calculated in the vehicle group. The initial calculations of Target/36B4 was divided by the vehicle average so the vehicle average becomes 1.0. This second Target/36B4 represents a fold-change of Target gene relative to the vehicle average.

STAM model mice (NASH) [4] = assay: STAM model mice: viability, body weight, food consumption, liver weight
Description: as §1, §2
C57BL16 mice (15-day-pregnant female) were obtained from Japan SLC (Japan) and were housed in accordance with the Japanese Pharmacological Society Guidelines for Animal Use. The animals were maintained in a SPF facility under controlled conditions of temperature (23±2° C.), humidity (45±10%), lighting (12-hour artificial light and dark cycles; light from 8:00 to 20:00) and air exchange. A high pressure was maintained in the experimental room to prevent contamination of the facility. The animals were housed in TPX cages (CLEA Japan) with a maximum of 4 mice per cage. Sterilized Paper-Clean (Japan SLC) was used for bedding and replaced once a week.
Sterilized solid HFD was provided ad libitum, being placed in a metal lid on the top of the cage. Pure water was provided ad libitum from a water bottle equipped with a rubber stopper and a sipper tube. Water bottles were replaced once a week, cleaned and sterilized in an autoclave and reused. Mice were identified by numbers engraved on earrings. Each cage was labeled with a specific identification code.
as §3
The viability, clinical signs and behavior were monitored daily. […]
The body weight of each mouse was recorded daily and food consumption was recorded 3 times weekly during the treatment period. […]

[5] = day of sacrifice, mean ± SD, PHEN 15 + TPM 100 mg/kg (n=6), Telmisartan 5 mg/kg (n=8)

In the case of `CCCc1nc2c(C)cc(-c3nc4ccccc4n3C)cc2n1Cc1ccc(-c2ccccc2C(=O)O)cc1` [Telmisartan], the “Plasma ALT” value (STAM model mice (NASH) [1]) is reported as 39 U/L and 39 ± 34 U/L, the “Plasma AST” value (STAM model mice (NASH) [1]) is reported as 229 U/L and 229 ± 176 U/L and the Whole blood glucose (STAM model mice (NASH) [1]; non-fasting) is reported as 768 mg/dL and 768 ± 199 mg/dL. For the same compound, the “Fibrosis area (Sirius-red)” value (STAM model mice (NASH) [2]; mean ± SD) was 0.81% and 0.81 ± 0.39%, the “Inflammation area (F4/80)” value (STAM model mice (NASH) [2]; mean ± SD) was 1.48 ± 0.76% and the “Number of mice with Steatosis score 0” value (STAM model mice (NASH) [2]; score 0 = <5%) was 2. For the same compound, the “Number of mice with Lobular Inflammation score 0” value (STAM model mice (NASH) [2]; score 0 = No foci) was 2, the “Number of mice with Steatosis score 1” value (STAM model mice (NASH) [2]; score 1 = 5-33%) was 6 and the “Number of mice with Lobular Inflammation score 1” value (STAM model mice (NASH) [2]; score 1 = <2 foci/200x) was 2. For the same compound, the “Number of mice with Hepatocyte Ballooning score 1” value (STAM model mice (NASH) [2]; score 1 = Few balloon cells) was 4, the “Number of mice with Lobular Inflammation score 2” value (STAM model mice (NASH) [2]; score 2 = 2-4 foci/200x) was 4 and the “Number of mice with Hepatocyte Ballooning score 2” value (STAM model mice (NASH) [2]; score 2 = Many cells/prominent ballooning) was 4. The “Alpha-SMA/36B4 mRNA expression, fold change relative to Vehicle group” value [3] was 0.54 and 0.54 ± 0.40, the “Collagen Type 1/36B4 mRNA expression, fold change relative to Vehicle group” value [3] was 0.80 and 0.80 ± 0.11 and the “MCP-1/36B4 mRNA expression, fold change relative to Vehicle group” value [3] was 0.44 and 0.44 ± 0.23. For the same compound, the “MMP-9/36B4 mRNA expression, fold change relative to Vehicle group” value [3] was 1.21 and 1.21 ± 0.36, the “TIMP-1/36B4 mRNA expression, fold change relative to Vehicle group” value [3] was 0.66 and 0.66 ± 0.46 and the “TNF-α/36B4 mRNA expression, fold change relative to Vehicle group” value [3] was 0.75 and 0.75 ± 0.17. For the same compound, the “Mean body weight reduced compared to the Vehicle group” value (STAM model mice (NASH) [4]; day of sacrifice) was 11.4%, the Liver-to-body weight ratio (STAM model mice (NASH) [4]; day of sacrifice, mean ± SD) was 6.2 ± 1.1% and the Body weight (STAM model mice (NASH) [4]; [5]) was 18.7 g and 18.7 ± 1.7 g. For the same compound, the Liver weight (STAM model mice (NASH) [4]; [5]) was 1156 ± 210 mg and the “Mice found dead before reaching week 11” value (STAM model mice (NASH) [4]; treatment period 5 to 11 weeks of age, oral once daily, PHEN 15 mg/kg + TPM 100 mg/kg, Telmisartan 5 mg/kg) was “Two out of 10”.
